Assay results as given in patent US7495027B2, “3-aryl-4-hydroxyfuranone compounds and the human and animal health use thereof” (Wyeth, priority 2003, dated 2009).
Where two headings read alike, the source gives them in different places.

Assays:
[1] = target: E. coli UDP-N-acetylglucosamine enolpyruvoyl transferase, MurA (Escherichia coli, UniProt P0A749); experiment: biochemical; settings: (E) E. coli enzyme
Summary of the method: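 Enzyme in 50 mM Tris/HCl pH 8.0 with 5 mM DTT and 20% glycerol was pre-incubated 10 min at 37° C with test compound in DMSO/water. Tris/BME and assay buffer then started the 1 hr, 37° C reaction, with a baseline 340 nm reading taken at start. Stop solution followed, and colour developed 30 minutes.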

[2] = target: T1, S. aureus UDP-N-acetylglucosamine enolpyruvoyl transferase, MurA (Staphylococcus aureus, UniProt P84058); experiment: Inhibitory activity against MurA (S. aureus); assay type: biochemical; settings: (S) S. aureus enzyme
T1 sequence (P84058 1-421): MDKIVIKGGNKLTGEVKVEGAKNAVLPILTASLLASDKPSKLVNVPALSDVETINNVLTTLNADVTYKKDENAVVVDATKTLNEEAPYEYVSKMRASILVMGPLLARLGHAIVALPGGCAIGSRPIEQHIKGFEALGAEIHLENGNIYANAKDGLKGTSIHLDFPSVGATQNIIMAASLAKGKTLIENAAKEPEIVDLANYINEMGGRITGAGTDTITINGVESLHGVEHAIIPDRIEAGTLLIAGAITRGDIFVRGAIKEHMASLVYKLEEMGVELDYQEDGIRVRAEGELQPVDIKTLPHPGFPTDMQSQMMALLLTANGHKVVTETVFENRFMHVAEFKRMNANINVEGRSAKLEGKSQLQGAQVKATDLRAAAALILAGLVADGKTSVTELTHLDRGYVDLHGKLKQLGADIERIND
Protocol: Evaluation of the Inhibitory Activity of Test Compounds Against Enzymes which Catalyze Bacterial Cell Wall Biosynthesis
S. aureus and E. coli UDP-N-acetylglucosamine enolpyruvoyl transferase, MurA
Preparation of Enzyme Solution:
The enzyme solution is prepared by admixing the following: 50 mM Tris/HCl pH 8.0, […] 1 M Tris, 5 mM DTT, […] 1 M DTT, 20% Glycerol 4 ml 50% Glycerol, add water to 10 ml.
Preparation of Stop Solution:
The stop solution is prepared by mixing the following: 4.2% ammonium molybdate in 4N HCl, 8.4 g/200 ml 4N HCl, 0.045% malachite green, 90 mg/200 ml water, then stir 1 part ammonium molybdate with 2 parts malachite green for 30 min.
A procedure similar to that described by C. T. Walsh in Biochemistry 33, 10646-10651, is used to evaluate the inhibitory activity of test compounds against MurA, the enzyme which catalyzes the first step of bacterial cell wall biosynthesis. Experiments are performed by adding a solution of test compound (in a mixture of dimethylsulfoxide and water) and an enzyme solution to a well. After a pre-incubation period of 10 mintues at 37° C., Tris/BME buffer and assay buffer are added. A start point optical density (OD0) reading is taken at 340 nm immediately following the addition of assay buffer. After incubation for 1 hr at 37° C., the stop solution is added and the color is allowed to develop for 30 minutes. An end point OD1 reading at […] is then taken. […]

[3] = test system: larvae of blowfly, Lucilia sericata; experiment: whole plant or invertebrate; settings: dose rate of 20 ppm, Lucilia sericata larvae on treated filter paper with bovine serum
Protocol: Comparative Evaluation of the Efficacy of a 3-Aryl-4-hydroxyfuranone Compound Against Blowfly Larvae
In this evaluation, filter paper discs are treated with an acetone solution of test compound and allowed to dry. Bovine serum and newly emerged larvae of blowfly, Lucilia sericata, are added to the treated filter paper. Mortality is assessed at 24 h and 48 h. When more than one evaluation is performed, the data are averaged.

[4] = assessed at 24 h, read-out: % Mortality 24 h
[5] = assessed at 48 h, read-out: % Mortality 48 h

E. coli UDP-N-acetylglucosamine enolpyruvoyl transferase, MurA, sequence (P0A749 whole entry): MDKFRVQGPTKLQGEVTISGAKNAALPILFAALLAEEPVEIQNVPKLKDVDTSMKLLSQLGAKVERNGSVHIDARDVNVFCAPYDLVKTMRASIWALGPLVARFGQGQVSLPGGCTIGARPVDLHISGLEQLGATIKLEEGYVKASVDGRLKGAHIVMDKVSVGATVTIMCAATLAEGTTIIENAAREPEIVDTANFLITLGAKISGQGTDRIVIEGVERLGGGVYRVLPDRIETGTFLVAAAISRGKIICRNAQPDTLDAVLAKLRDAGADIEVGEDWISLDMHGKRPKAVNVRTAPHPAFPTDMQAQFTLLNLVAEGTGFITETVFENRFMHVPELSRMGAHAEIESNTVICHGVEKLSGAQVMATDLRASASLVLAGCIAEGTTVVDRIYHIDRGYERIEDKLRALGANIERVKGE

For `O=C1O/C(=C\c2cccc(-c3cccc(Cl)c3)c2)C(O)=C1c1cccc(Cl)c1` [Example 134], the “MurA IC50” value [1] was 5 (E) μg/mL.

For `COc1ccccc1-c1ccc(/C=C2\OC(=O)C(c3cc(Cl)cc(Cl)c3)=C2O)cc1OC` [Example 19], the IC50 [2] was 36.2 µM.

For `Cc1cc(/C=C2\OC(=O)C(c3cc(Cl)cc(Cl)c3)=C2O)ccc1-c1ccccc1OS(C)(=O)=O` [Example 39], the “MurA IC50” value [2] was 15 (S) μg/mL.

`O=C1O/C(=C\c2ccc(C(F)(F)F)cc2)C(O)=C1c1ccc(-c2ccccc2)cc1` [R=H, R1=4-(biphenyl), R2=4-CF3—C6H4] showed a mortality at 20 ppm [3, 4] of 0%, a mortality at 20 ppm [3, 5] of 0% and an IC50 [1] of 46.5 µM.

With `O=C1O/C(=C\c2ccc(-c3ccc(Cl)cc3)cc2)C(O)=C1c1ccc(Cl)cc1` [R=H, R1=4-Cl—C6H4, R2=4-(4′-Cl-biphenyl)] the mortality at 20 ppm [3, 4] was 0%, the mortality at 20 ppm [3, 5] was 0% and the IC50 [1] was 14.7 µM.

For `Cc1cc(/C=C2\OC(=O)C(c3cccc(Cl)c3)=C2O)ccc1-c1ccccc1Cl` [Example 30], the IC50 [2] was 7.09 µM.

With `O=C1O/C(=C\c2cccc3ccccc23)C(O)=C1c1cccc(C=NO)c1` [Example 77] the “MurA IC50” value [2] was >25 (S) μg/mL.

For `O=C1O/C(=C\c2ccc(N3CCOCC3)c(F)c2)C(O)=C1c1cc(Cl)cc(Cl)c1` [Example 34], the “MurA IC50” value [2] was 22 (S) μg/mL.

Compound `O=C1O/C(=C\c2ccc(Cl)cc2)C(O)=C1c1ccc2ccccc2c1` [Example 43] has an IC50 [1] of 57.3 µM and a melting point of 243 to 250 °C.

In the case of `COc1ccc(C=C2OC(=O)C(c3cccc(Cl)c3)=C2O)c2ccccc12` [Example 35], the “MurA IC50” value [2] is reported as >25 (S) μg/mL.

With `Cc1ccccc1-c1ccc(/C=C2\OC(=O)C(c3cccc(Cl)c3)=C2O)cc1C` [Example 28] the IC50 [2] was 24.8 µM.

With `O=C1O/C(=C\c2ccc3ccccc3c2)C(O)=C1c1cccc2ccccc12` [Example 56] the IC50 [1] was > 68.6 µM and the melting point was 235 to 237 °C.

For `O=C1O/C(=C\c2cccc(C(F)(F)F)c2)C(O)=C1c1ccc(-c2ccccc2)c(F)c1` [Example 106], the IC50 [1] was 21.1 µM.

With `O=C1OC(=Cc2cccc3ccccc23)C(O)=C1c1ccc(C=NO)cc1` (mixture of isomers) [Example 73] the “MurA IC50” value [2] was >25 (S) μg/mL.

With `COc1cc(/C=C2\OC(=O)C(c3cccc(Cl)c3)=C2O)ccc1-c1ccccc1Cl` [Example 18] the IC50 [2] was 13.7 µM.

`COc1ccc(/C=C2\OC(=O)C(c3cc(Cl)cc(Cl)c3)=C2O)c2ccccc12` [Example 36] gave an IC50 [2] of 14.5 µM.

In the case of `COc1ccccc1-c1ccc(/C=C2\OC(=O)C(c3cc(Cl)cc(Cl)c3)=C2O)cc1C` [Example 24], the IC50 [2] is reported as 15.4 µM.

`O=C1O/C(=C\c2cccnc2)C(O)=C1c1ccc(-c2ccccc2)cc1` [Example 101] gave an IC50 [1] of 67.4 µM and a melting point of 252 to 255 °C.

With `Cc1ccc(/C=C2\OC(=O)C(c3ccc(-c4ccccc4)cc3)=C2O)s1` [Example 104] the IC50 [1] was > 69.4 µM and the melting point was 235 to 240 °C.

With `O=C1O/C(=C\c2cccc(C(F)(F)F)c2)C(O)=C1c1ccc2ccccc2c1` [Example 42] the “MurA IC50” value [1] was 20 (E) μg/mL.

In the case of `COc1cc(/C=C2\OC(=O)C(c3cc(Cl)cc(Cl)c3)=C2O)ccc1-c1ccccc1C(F)(F)F` [Example 33], the IC50 [2] is reported as 7.89 µM.

With `O=C1OC(=Cc2ccc(-c3ccccc3)cc2)C(O)=C1c1cccc(C(F)(F)F)c1` (mixture of isomers) [Example 11] the “MurA IC50” value [1] was 1 (E) μg/mL.

`O=C1O/C(=C\c2ccccc2-c2ccc(Cl)c(Cl)c2)C(O)=C1c1ccc(Cl)c(Cl)c1` [Example 141] showed an IC50 [2] of 6.27 µM.

`Cc1cc(/C=C2\OC(=O)C(c3cccc(Cl)c3)=C2O)ccc1-c1ccccc1C(F)(F)F` [Example 26] gave an IC50 [2] of 8.76 µM.

`O=C1O/C(=C\c2cccc(-c3cc(Cl)cc(Cl)c3)c2)C(O)=C1c1cc(Cl)cc(Cl)c1` [Example 136] showed an IC50 [2] of 2.09 µM.

In the case of `O=C1O/C(=C\c2ccc3ccccc3c2)C(O)=C1c1ccc2ccccc2c1` [Example 52], the IC50 [1] is reported as > 68.6 µM and the melting point is reported as 285 to 290 °C.

For `COc1ccccc1-c1ccc(/C=C2\OC(=O)C(c3cccc(Cl)c3)=C2O)cc1C` [Example 23], the IC50 [2] was 33.4 µM.

In the case of `COc1ccccc1-c1ccc(/C=C2\OC(=O)C(c3ccc(Cl)c(Cl)c3)=C2O)cc1OC` [Example 20], the IC50 [2] is reported as > 53.3 µM.

For `CN(C)c1ccc(/C=C2\OC(=O)C(c3ccc(C(F)(F)F)cc3)=C2O)c2ccccc12` [Example 81], the IC50 [2] was > 58.8 µM.

With `Cc1cc(C=C2OC(=O)C(c3cc(Cl)cc(Cl)c3)=C2O)ccc1-c1ccccc1Cl` [Example 31] the “MurA IC50” value [2] was 2 (S) μg/mL.

With `O=C1O/C(=C\c2cccc3ccccc23)C(O)=C1c1cccc2ccccc12` [Example 47] the IC50 [1] was > 68.6 µM and the melting point was 216 to 218 °C.

With `O=C1O/C(=C\c2ccc(N3CCOCC3)c3ccccc23)C(O)=C1c1cc(Cl)cc(Cl)c1` [Example 38] the IC50 [2] was > 53.4 µM.

In the case of `Cc1cc(/C=C2\OC(=O)C(c3cc(Cl)cc(Cl)c3)=C2O)ccc1-c1ccccc1C(F)(F)F` [Example 27], the IC50 [2] is reported as 4.07 µM.

With `O=C1O/C(=C\c2ccc(-c3cccc(C(F)(F)F)c3)cc2)C(O)=C1c1cccc(C(F)(F)F)c1` the “% Mortality 24 h” value ([3]; assessed at 24 h) was 0%, the “% Mortality 48 h” value ([3]; assessed at 48 h) was 0% and the “MurA IC50” value [1] was >25 (E) μg/mL.

For `O=C1O/C(=C\c2ccccc2-c2cccc(Cl)c2)C(O)=C1c1cccc(Cl)c1` [Example 140], the IC50 [2] was 26.9 µM.

In the case of `Cc1ccc(C=C2OC(=O)C(c3ccc(Cl)cc3)=C2O)s1` [Example 14], the “MurA IC50” value [1] is reported as 5 (E) μg/mL.

With `Cc1ccc(C=C2OC(=O)C(c3ccc(Cl)cc3)=C2O)s1` (mixture of isomers) [Example 13] the “MurA IC50” value [1] was 0.5 (E) μg/mL.

For `CN(C)c1ccc(/C=C2\OC(=O)C(c3ccc(Cl)cc3)=C2O)c2ccccc12` [Example 78], the IC50 [2] was > 63.8 µM.

Work on `Cc1ccccc1-c1ccc(/C=C2\OC(=O)C(c3cc(Cl)cc(Cl)c3)=C2O)cc1C` [Example 29] yielded an IC50 [2] of 4.57 µM.

`COc1cc(/C=C2\OC(=O)C(c3cccc(Cl)c3)=C2O)ccc1-c1ccccc1C` [Example 22] gave an IC50 [2] of 21.5 µM.

In the case of `O=C1O/C(=C\c2ccccc2-c2ccc(Cl)cc2)C(O)=C1c1ccc(Cl)cc1` [Example 137], the IC50 [2] is reported as 31.8 µM.

For `COc1cc(/C=C2\OC(=O)C(c3cc(Cl)cc(Cl)c3)=C2O)ccc1-c1ccccc1C` [Example 25], the IC50 [2] was 11 µM.

In the case of `O=C1OC(=CC2CCCCC2)C(O)=C1c1cccc(C(F)(F)F)c1` [Example 16], the “MurA IC50” value [1] is reported as >25 (E) μg/mL.

For `CN(C)c1ccc(C=C2OC(=O)C(c3cc(Cl)cc(Cl)c3)=C2O)c2ccccc12` [Example 80], the “MurA IC50” value [2] was 15 (S) μg/mL.

For `O=C1O/C(=C\c2ccc(-c3cc(Cl)cc(Cl)c3)cc2)C(O)=C1c1cc(Cl)cc(Cl)c1`, the mortality at 20 ppm [3, 4] was 0%, the mortality at 20 ppm [3, 5] was 0% and the “MurA IC50” value [1] was 1 (E) μg/mL.

With `O=C1O/C(=C\c2cccc3ccccc23)C(O)=C1c1ccc(-c2ccccc2)cc1` [R=H, R1=4-biphenyl, R2=1-naphthyl] the mortality at 20 ppm [3, 4] was 100%, the mortality at 20 ppm [3, 5] was 100% and the IC50 [1] was 58.9 µM.

In the case of `CCOC(=O)c1cccc(C2=C(O)C(=Cc3cccc4ccccc34)OC2=O)c1` [Example 75], the “MurA IC50” value [2] is reported as >25 (S) μg/mL.

Compound `COc1cc(/C=C2\OC(=O)C(c3cccc(Cl)c3)=C2O)ccc1-c1ccccc1C(F)(F)F` [Example 32] has an IC50 [2] of 21.1 µM.

In the case of `O=C1O/C(=C\c2cc(C(F)(F)F)ccc2Cl)C(O)=C1c1ccc(N2CCOCC2)c(F)c1` [Example 142], the “MurA IC50” value [2] is reported as >25 (S) μg/mL.

Work on `CN(C)c1ccc(/C=C2\OC(=O)C(c3cc(Cl)cc(Cl)c3)=C2O)c2ccccc12` [Example 79] yielded an IC50 [2] of 32.8 µM.

With `O=C1O/C(=C\c2ccc(N3CCOCC3)c3ccccc23)C(O)=C1c1cccc(Cl)c1` [Example 37] the IC50 [2] was > 57.6 µM.

`COc1cc(/C=C2\OC(=O)C(c3cc(Cl)cc(Cl)c3)=C2O)ccc1-c1ccccc1Cl` [Example 21] showed an IC50 [2] of 10.6 µM.

For `O=C1O/C(=C\C2CCCCC2)C(O)=C1c1ccc2ccccc2c1` [Example 51], the IC50 [1] was > 78 µM.
